Patent US20090149458A1, “PYRROLO[3,2-d]PYRIMIDINE COMPOUNDS AND THEIR USE AS PI3 KINASE AND mTOR KINASE INHIBITORS” (Wyeth, priority 2007, published 2009)

Legend:
[1] = tested on: acute lymphoblastic leukemia xenograft; conditions: NOS/SCID xenograft mouse model of acute lymphoblastic leukemia; Teachey et al, Blood 2006; cited from earlier work
PI3 Kinase α = PI3 Kinase α (Homo sapiens, UniProt P42336); test: PI3K fluorescence polarization assay (PI3 Kinase α); assay type: biochemical; conditions: 20 uM PIP2, 25 uM ATP;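 further: enzyme reaction with inhibitor or DMSO control, 30–60 min at room temperature, stopped by EDTA, then TAMRA detector with GST-GRP fluorescence polarization read after 90–110 min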
human TOR = target: T1, human TOR (Homo sapiens, UniProt P42345); test: human TOR kinase assay with purified enzyme, DELFIA format; assay type: biochemical; conditions: FLAG-TOR, 100 μM ATP, His6-S6K substrate;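 further: 2 h kinase reaction at room temperature, phosphorylation of S6K at T389 detected with a europium-labelled antibody after plate capture, DMSO vehicle as control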
T1 construct: FLAG

PI3 Kinase γ = PI3 Kinase γ (Homo sapiens, UniProt P48736); test: PI3K fluorescence polarization assay (PI3 Kinase γ); assay type: biochemical; conditions: 20 uM PIP2, 25 uM ATP
Protocol: Buffers: Reaction Buffer: 20 mM HEPES pH7.5, 2 mM MgCl2, 0.05% CHAPS, and 0.01% bME (added fresh); STOP/detection Buffer: 100 mM HEPES pH7.5, 4 mM EDTA, 0.05% CHAPS. STOCKS: ATP 20 mM in H2O; PIP2 (diC8, Echelon cat# P-4508) 1 mM in H2O MW=856.5; GST-murine GRP 1.5 mg/ml in 17% glycerol; Red detector probe-Echelon (TAMRA) 2.5 uM. Plate: Nunc 384 well black polypropylene fluor. Plate.
Assay: The assay is run by putting 9.5 ul of freshly diluted enzyme (in “reaction buffer”) per well, then 0.5 ul of diluted drug or DMSO mixing. Then 10 ul of substrate is added to start the reaction. The mixture is incubated 30-60 minutes, room temp, then stopped with 20 ul of stop/detector mix. The substrate solution, is 40 μM PIP2 and 50 uM ATP in reaction buffer. Addition of 10 ul of substrate to each well starts the reaction. This is 20 uM PIP2, 25 uM ATP final in reaction.
Stop/detector mix: 10 nM TAMRA detector, 40 nM GST-GRP in STOP/detection buffer. To stop reaction: add 20 ul Stop/detector mix per well and mix well. Wait 90-110 minutes before reading plate. Plates are read on Perkin-Elmer Envision plate readers with filters for Tamra. Keep Red probe solutions dark. This procedure is adapted from Echelon Biosciences Inc procedure for their PI3-Kinase fluorescence polarization activity Assay kit Product number K-1100.

Sequence of PI3 Kinase γ (P48736 whole entry): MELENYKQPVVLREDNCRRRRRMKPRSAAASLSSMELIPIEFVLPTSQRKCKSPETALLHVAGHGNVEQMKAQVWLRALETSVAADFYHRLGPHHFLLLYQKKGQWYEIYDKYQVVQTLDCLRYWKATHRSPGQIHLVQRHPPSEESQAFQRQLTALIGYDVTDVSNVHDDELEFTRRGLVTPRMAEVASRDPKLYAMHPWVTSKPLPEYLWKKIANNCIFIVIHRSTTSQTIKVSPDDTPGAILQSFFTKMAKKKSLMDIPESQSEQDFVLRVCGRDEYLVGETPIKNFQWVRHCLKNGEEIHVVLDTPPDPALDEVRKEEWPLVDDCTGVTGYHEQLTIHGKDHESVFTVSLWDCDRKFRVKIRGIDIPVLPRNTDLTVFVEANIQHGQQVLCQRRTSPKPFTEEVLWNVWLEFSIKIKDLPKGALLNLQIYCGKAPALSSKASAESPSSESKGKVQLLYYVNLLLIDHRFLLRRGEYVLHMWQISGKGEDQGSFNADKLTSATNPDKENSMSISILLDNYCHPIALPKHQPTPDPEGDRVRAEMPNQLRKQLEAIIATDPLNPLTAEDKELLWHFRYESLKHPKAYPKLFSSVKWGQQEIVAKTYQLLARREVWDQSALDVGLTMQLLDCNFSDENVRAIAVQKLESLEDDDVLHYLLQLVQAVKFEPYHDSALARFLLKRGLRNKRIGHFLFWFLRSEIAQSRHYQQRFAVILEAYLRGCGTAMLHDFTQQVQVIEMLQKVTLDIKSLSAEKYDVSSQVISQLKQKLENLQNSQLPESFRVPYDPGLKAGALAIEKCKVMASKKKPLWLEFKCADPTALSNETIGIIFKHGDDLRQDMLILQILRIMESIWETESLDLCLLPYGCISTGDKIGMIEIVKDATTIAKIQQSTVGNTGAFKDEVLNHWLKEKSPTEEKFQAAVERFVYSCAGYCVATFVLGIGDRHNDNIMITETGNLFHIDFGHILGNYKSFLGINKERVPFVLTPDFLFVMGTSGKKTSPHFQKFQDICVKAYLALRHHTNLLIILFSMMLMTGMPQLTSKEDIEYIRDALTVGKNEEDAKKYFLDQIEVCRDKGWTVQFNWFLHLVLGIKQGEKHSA
Sequence of PI3 Kinase α (P42336 whole entry): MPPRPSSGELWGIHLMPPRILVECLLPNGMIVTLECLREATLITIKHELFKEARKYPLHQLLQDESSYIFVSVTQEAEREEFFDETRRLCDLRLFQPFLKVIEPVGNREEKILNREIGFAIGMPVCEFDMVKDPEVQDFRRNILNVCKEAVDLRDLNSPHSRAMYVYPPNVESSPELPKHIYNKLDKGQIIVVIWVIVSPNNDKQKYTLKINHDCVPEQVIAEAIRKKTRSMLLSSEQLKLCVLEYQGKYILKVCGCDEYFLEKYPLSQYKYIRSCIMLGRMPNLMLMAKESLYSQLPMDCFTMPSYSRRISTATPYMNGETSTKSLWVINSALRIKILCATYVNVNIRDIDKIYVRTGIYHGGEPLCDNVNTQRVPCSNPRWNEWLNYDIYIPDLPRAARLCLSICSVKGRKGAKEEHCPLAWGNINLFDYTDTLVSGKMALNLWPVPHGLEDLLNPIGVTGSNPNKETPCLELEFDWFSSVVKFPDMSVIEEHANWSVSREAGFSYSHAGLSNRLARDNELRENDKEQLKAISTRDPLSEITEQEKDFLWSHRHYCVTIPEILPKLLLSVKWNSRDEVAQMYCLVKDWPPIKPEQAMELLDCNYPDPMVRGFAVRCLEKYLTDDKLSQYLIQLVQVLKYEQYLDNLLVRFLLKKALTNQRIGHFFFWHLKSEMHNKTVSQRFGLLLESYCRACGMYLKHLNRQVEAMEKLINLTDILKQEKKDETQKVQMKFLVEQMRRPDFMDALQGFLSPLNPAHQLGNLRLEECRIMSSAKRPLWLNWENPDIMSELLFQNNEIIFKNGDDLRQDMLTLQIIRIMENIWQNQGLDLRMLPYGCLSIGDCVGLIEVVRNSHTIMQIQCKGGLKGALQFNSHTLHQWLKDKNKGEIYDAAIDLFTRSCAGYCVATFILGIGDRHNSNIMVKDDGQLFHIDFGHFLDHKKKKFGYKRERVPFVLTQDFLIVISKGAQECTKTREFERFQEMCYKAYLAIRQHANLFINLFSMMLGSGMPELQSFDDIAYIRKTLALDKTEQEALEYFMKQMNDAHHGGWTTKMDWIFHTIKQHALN
Sequence of PI3 Kinase α (P27986 whole entry partner): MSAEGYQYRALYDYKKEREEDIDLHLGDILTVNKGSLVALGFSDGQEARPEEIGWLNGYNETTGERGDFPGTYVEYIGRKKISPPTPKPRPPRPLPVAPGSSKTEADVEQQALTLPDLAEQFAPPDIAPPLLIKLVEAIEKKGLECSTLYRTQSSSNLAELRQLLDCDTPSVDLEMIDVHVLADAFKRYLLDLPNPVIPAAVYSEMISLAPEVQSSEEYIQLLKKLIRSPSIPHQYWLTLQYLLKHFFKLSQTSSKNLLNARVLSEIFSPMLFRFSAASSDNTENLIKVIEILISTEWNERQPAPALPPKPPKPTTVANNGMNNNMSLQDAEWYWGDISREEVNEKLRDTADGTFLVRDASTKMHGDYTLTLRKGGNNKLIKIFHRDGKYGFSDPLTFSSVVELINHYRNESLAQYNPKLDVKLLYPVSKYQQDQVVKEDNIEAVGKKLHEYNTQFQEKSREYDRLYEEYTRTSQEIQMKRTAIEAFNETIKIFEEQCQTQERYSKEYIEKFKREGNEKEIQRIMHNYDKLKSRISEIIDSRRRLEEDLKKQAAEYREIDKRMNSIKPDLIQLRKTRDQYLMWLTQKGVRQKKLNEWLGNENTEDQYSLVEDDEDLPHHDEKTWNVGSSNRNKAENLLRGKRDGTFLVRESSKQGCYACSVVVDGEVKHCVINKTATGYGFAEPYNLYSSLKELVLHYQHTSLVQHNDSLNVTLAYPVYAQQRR

SMILES | IC50 (PI3 Kinase α) | IC50 (human TOR) | IC50 (PI3 Kinase γ) | activity in xenograft model [1]
CO[C@H]1C[C@@H]2CC[C@@H](C)[C@@](O)(O2)C(=O)C(=O)N2CCCC[C@H]2C(=O)O[C@H]([C@H](C)C[C@@H]2CC[C@@H](OC(=O)C(C)(CO)CO)[C@H](OC)C2)CC(=O)[C@H](C)/C=C(\C)[C@@H](O)[C@@H](OC)C(=O)[C@H](C)C[C@H](C)/C=C/C=C/C=C/1C [Torisel] | – | – | – | active
CN(C)CCNC(=O)Nc1cccc(-c2nc(N3CCOCC3)c3[nH]ccc3n2)c1 [Example 40, 1-[2-(dimethylamino)ethyl]-3-[3-(4-morpholin-4-yl-5H-pyrrolo[3,2-d]pyrimidin-2-yl)phenyl]urea] | 4.68 µM | > 4 µM | 9.5 µM | –
OCc1cccc(-c2nc(N3CCOCC3)c3[nH]cc(C4=CCN(Cc5ccccc5)CC4)c3n2)c1 [Example 25, {3-[7-(1-benzyl-1,2,3,6-tetrahydropyridin-4-yl)-4-morpholin-4-yl-5H-pyrrolo[3,2-d]pyrimidin-2-yl]phenyl}methanol] | 0.26 µM | 1.7 µM | 2.79 µM | –
O=C(NCCCn1ccnc1)Nc1cccc(-c2nc(N3CCOCC3)c3[nH]ccc3n2)c1 [Example 42, 1-[3-(1H-imidazol-1-yl)propyl]-3-[3-(4-morpholin-4-yl-5H-pyrrolo[3,2-d]pyrimidin-2-yl)phenyl]urea] | 8.94 µM | > 4 µM | > 10 µM | –
O=C(NCCCO)Nc1cccc(-c2nc(N3CCOCC3)c3[nH]ccc3n2)c1 [Example 41, 1-(3-hydroxypropyl)-3-[3-(4-morpholin-4-yl-5H-pyrrolo[3,2-d]pyrimidin-2-yl)phenyl]urea] | 6.22 µM | > 4 µM | > 10 µM | –
CCN(CC)Cc1c[nH]c2c(N3CCOCC3)nc(-c3cccc(O)c3)nc12 [Example 19, 3-{7-[(diethylamino)methyl]-4-morpholin-4-yl-5H-pyrrolo[3,2-d]pyrimidin-2-yl}phenol] | 0.132 µM | 3.1 µM | 1.82 µM | –
OCc1cccc(-c2nc(N3CCOCC3)c3[nH]cc(CN4CCN(Cc5ccccc5)CC4)c3n2)c1 [Example 15] | 0.24 µM | 5.8 µM | 2.39 µM | –

Second part, led by results:

IC50 (PI3 Kinase α) | IC50 (human TOR) | IC50 (PI3 Kinase γ) | SMILES | activity in xenograft model [1]
0.105 µM | 3.25 µM | 1.56 µM | Oc1cccc(-c2nc(N3CCOCC3)c3[nH]cc(CN4CCCC4)c3n2)c1 [Example 17, 3-[4-morpholin-4-yl-7-(pyrrolidin-1-ylmethyl)-5H-pyrrolo[3,2-d]pyrimidin-2-yl]phenol] | –
0.166 µM | 0.33 µM | 1.92 µM | Oc1cccc(-c2nc(N3CCOCC3)c3[nH]cc(C4CCN(Cc5ccccc5F)CC4)c3n2)c1 [Example 32, 3-{7-[1-(2-fluorobenzyl)piperidin-4-yl]-4-morpholin-4-yl-5H-pyrrolo[3,2-d]pyrimidin-2-yl}phenol] | –
0.484 µM | 3.75 µM | 0.828 µM | CN1CCC(c2c[nH]c3c(N4CCOCC4)nc(-c4cccc(O)c4)nc23)CC1 [Example 30, 3-[7-(1-methylpiperidin-4-yl)-4-morpholin-4-yl-5H-pyrrolo[3,2-d]pyrimidin-2-yl]phenol] | –
2.4 µM | > 4 µM | 2.68 µM | COC(=O)Cn1ccc2nc(-c3cccc(CO)c3)nc(N3CCOCC3)c21 [Example 46, Methyl {2-[3-(hydroxymethyl)phenyl]-4-morpholin-4-yl-5H-pyrrolo[3,2-d]pyrimidin-5-yl}acetate] | –
0.111 µM | 0.96 µM | 0.792 µM | Oc1cccc(-c2nc(N3CCOCC3)c3[nH]cc(C4CCN(Cc5ccc[nH]5)CC4)c3n2)c1 [Example 33, 3-{4-morpholin-4-yl-7-[1-(1H-pyrrol-2-ylmethyl)piperidin-4-yl]-5H-pyrrolo[3,2-d]pyrimidin-2-yl}phenol] | –
0.25 µM | 0.37 µM | 2.49 µM | Oc1cccc(-c2nc(N3CCOCC3)c3[nH]cc(C4CCN(C5CCCCC5)CC4)c3n2)c1 [Example 31, 3-[7-(1-cyclohexylpiperidin-4-yl)-4-morpholin-4-yl-5H-pyrrolo[3,2-d]pyrimidin-2-yl]phenol] | –
0.089 µM | 2.2 µM | 4.51 µM | OCc1cccc(-c2nc(N3CCOCC3)c3[nH]cc(CN4CCN(c5ncccn5)CC4)c3n2)c1 [Example 14] | –
0.074 µM | 5.5 µM | 2.87 µM | OCc1cccc(-c2nc(N3CCOCC3)c3[nH]cc(CNCc4cccnc4)c3n2)c1 [Example 9, [3-(4-morpholin-4-yl-7-{[(pyridin-3-ylmethyl)amino]methyl}-5H-pyrrolo[3,2-d]pyrimidin-2-yl)phenyl]methanol] | –
> 10 µM | 7 µM | > 10 µM | C1=C(c2c[nH]c3c(N4CCOCC4)nc(-c4cccc(OCc5ccccc5)c4)nc23)CCNC1 [Example 21, 2-[3-(benzyloxy)phenyl]-4-morpholin-4-yl-7-(1,2,3,6-tetrahydropyridin-4-yl)-5H-pyrrolo[3,2-d]pyrimidine] | –
